Measurements: patent US9375411B2, “Uses and methods for the treatment of liver diseases or conditions” (Verlyx Pharma Inc., priority 2012, dated 2016)
Where a name gives a salt, the structure may show the parent alone.

Tests used:
[1] = Oral bioavailability and biodistribution of pentamidine salts; details: mice; for Tissue Concentration Kidney / Tissue Concentration Liver / Tissue Concentration Lung / Tissue Concentration Pancreas: 24 hours after PO 200 mg/kg; for Tissue Concentration Kidney / Tissue Concentration Liver / Tissue Concentration Lung / Tissue Concentration Pancreas / AUCINF / Cl/F / Cmax / MRT / Tmax / t½: 200 mg/kg; for F* / AUCINF / Cl/F / Cmax / MRT / Tmax / t½: oral 200 mg/kg; for F*: based on the iv AUC at 5 mg/kg of 19.08; for AUCINF / Cl/F / Cmax / MRT / Tmax / t½: blood
Procedure: In this experiment, HCl, isethionate and tosylate salts of pentamidine were administered orally to mice and their PK and tissue accumulations were compared.
PK parameters for pentamidine salt following oral administration of 200 mg/kg in mice.
Biodistribution of Pentamidine Salts in mice, 24 hours after PO administration of 200 mg/kg.

[2] = system: GalN/LPS-induced liver injury; test: GalN/LPS fulminant liver injury survival study; type: in vivo; details: C57BL/6 mice; IP 30 minutes prior GalN/LPS; PENTAMIDINE 40 mpk, Decamidine 10 mpk
Procedure: In this experiment, the 8-hour survival rate for C57BL/6 mice is evaluated when treated or not with two different aromatic diamidines (pentamidine isethionate(C5) and decamidine isethionate (C10)). Both compounds were administered intraperitoneally at doses close to their MTD 30 minutes prior a GalN/LPS-induced liver injury.

## N=C(N)c1ccc(OCCCCCOc2ccc(C(=N)N)cc2)cc1 [HCl salt, pentamidine bis-HCl]
[1]; listed as Penta-HCL, bis-HCl
  Tissue Concentration Kidney: 156.3 µM
  Tissue Concentration Liver: 224.6 µM
  Tissue Concentration Lung: 43.4 µM
  Tissue Concentration Pancreas: 16.6 µM
[1]; bis-HCl
  F*: 20.7
  AUCINF: 158.1 µM·h
  Cl/F: 85 mL/min/kg
  Cmax: 5240 nM
  MRT: 136.0 h
  Tmax: 2.67 h
  t½: 90.8 h

## N=C(N)c1ccc(OCCCCCCCCCCOc2ccc(C(=N)N)cc2)cc1 [Decamidine, decamidine isethionate]
[2]
  8-hour survival: 100%

## N=C(N)c1ccc(OCCCCCOc2ccc(C(=N)N)cc2)cc1 [Tosylate salt, pentamidine tosylate]
[1]; listed as Penta-Tos
  Tissue Concentration Kidney: 1.9 µM
  Tissue Concentration Liver: 4.1 µM
  Tissue Concentration Lung: 0.5 µM
  Tissue Concentration Pancreas: 0.5 µM
[1]
  F*: 2.3
  AUCINF: 17.8 µM·h
  Cl/F: 440 mL/min/kg
  Cmax: 430 nM
  MRT: 86.0 h
  Tmax: 6.67 h
  t½: 54.9 h
